Data from PubChem BioAssay AID720512 (Broad Institute, 2013).
Active and inactive are the calls of the source. How the calls were made is not given here.

Target: Toxin B (TcdB) glycohydrolase, Clostridioides difficile 630
Assay: TcdB glycohydrolase inhibitors, dose response, biochemical, cherry-pick, plate reader (AID 720512)
Details: recombinant TcdB glycohydrolase activity

Row | Structure (SMILES) | activity change, negative = inhibition (at 19.5 µM (top of the series)) | also measured
1 | CC1CN=C(Nc2cccc(S(=O)(=O)N(C)C)c2)S1 (stereo unspecified) | inactive | –
2 | Cn1ncc(Br)c1C(=O)N/N=C/c1cccc(OC2CSC2)c1 | inactive | –
3 | Cc1cc(NC(=O)CCCN2C(=O)c3cccc4cccc(c34)C2=O)no1 | inactive | –
4 | COc1ccc(OC)c2sc(NNC(=O)C3COc4ccccc4O3)nc12 (stereo unspecified) | inactive | –
5 | CNC(=O)C1CCN(S(=O)(=O)c2c(C)noc2/C=C/c2cccc(OC)c2)CC1 | inactive | –
6 | O=C(COc1ccc(/C=N/NC(=O)c2ccc(O)cc2)cc1)Nc1cccc([N+](=O)[O-])c1 | inactive | –
7 | CN1C=CC(=CC=C2C=CC(=O)C=C2)C=C1 | inactive | –
8 | CCOC(=O)c1c(C)[nH]c(C)c1C(=O)COC(=O)/C=C/c1ccco1 | inactive | –
9 | Fc1ccc(-c2nc3ccc(Br)cn3c2Cc2ccccc2)cc1 | inactive | –
10 | O=C(CCNC(=O)c1ccccc1Cl)N/N=C\c1ccc(O)cc1 | inactive | –
11 | CCS(=O)(=O)c1ccc2oc(Nc3ccc(C(C)(C)C)cc3)nc2c1 | inactive | –
12 | COc1ccc(C(=O)/C=C/c2ccc(O)cc2)c2c1CC(O)C(C)(C)O2 (stereo unspecified) | – | AC50: > 39 µM (inactive)
13 | CC(C)(C)C(=O)C1=C(O)C(=O)N(c2ccccc2)C1c1ccccc1 (stereo unspecified) | inactive | –
14 | COc1ccc(C)cc1NC(=O)C(OC(=O)C1=NNC(=O)CC1)c1ccccc1 (stereo unspecified) | inactive | –
15 | COC(=O)C[C@H]1CC[C@@H]2[C@@H](COc3ccc(NC(=O)c4cccc(OC)c4)cc3C(=O)N2C)O1 | inactive | –
16 | Cc1cscc1-c1nc(NCC2CC2)nc2ccsc12 | inactive | –
17 | S=C(NCCN1CCOCC1)Nc1ccc(Nc2ccccc2)cc1 | – | AC50: > 39 µM (inactive)
18 | CO[C@@H]1CN(C)C(=O)c2cc(NC(=O)NC(C)C)ccc2OC[C@@H](C)N(S(C)(=O)=O)C[C@H]1C | – | activity change, negative = inhibition (at 3.5 µM (top of the series)): inactive
19 | COc1ccc(C2=NS(=O)(=O)N(C)C(C(=O)NCc3ccccc3)=C2)cc1OC | inactive | –
20 | COc1ccc(C(O)(C(C)C)C(CN2CCOCC2)c2ccccc2)cc1 (stereo unspecified) | inactive | –
21 | COc1cccc(-n2c(SCC(=O)N3CCOCC3)nnc2-c2c[nH]c3ccccc23)c1 | inactive | –
22 | CC(=O)Nc1ccc(NC(=O)[C@@H]2CCCN2S(=O)(=O)c2ccc3c(c2)OCCO3)cc1 | inactive | –
23 | COc1cccc(CC(=O)OCC(=O)Nc2c(C)nn(-c3ccccc3)c2C)c1 | inactive | –

Row | Structure (SMILES) | activity change, negative = inhibition (at 19.5 µM (top of the series)) | also measured
24 | COc1cccc2cc(/C(C)=N/NC(=O)c3ccco3)oc12 | inactive | –
25 | O=C(c1ccc2c(c1)N(Cc1ccccc1F)C(=O)c1ccccc1S2)N1CCOCC1 | inactive | –
26 | Nc1ccc2nc(-c3cccs3)[nH]c2c1 | – | AC50: > 39 µM (inactive)
27 | CCN(CC)CCCCN1c2ccccc2Sc2ccccc21 | – | AC50: > 39 µM (inactive)
28 | CCn1c(SCC(=O)OC)nnc1-c1ccccc1 | inactive | –
29 | Cc1ccc(C(=O)Nc2ccc(O)cc2C(=O)O)cc1C | inactive | –
30 | O=S(=O)(c1ccccc1)N1CCN=C1SCc1ccccc1 | inactive | –
31 | CS(=O)(=O)N(CC(=O)Nc1ccc(S(=O)(=O)N2CCOCC2)cc1)c1ccccc1Br | inactive | –
32 | CC(C)Cc1nnc(NC(=O)CCC(=O)NCc2ccccc2Cl)s1 | inactive | –
33 | Oc1ccc(/C=N/n2cc(-c3ccccc3)[nH]c2=S)cc1 | inactive | –
34 | CC(=O)C1=CCC(c2ccccc2)N(S(=O)(=O)c2ccc(C)cc2)C1 (stereo unspecified) | inactive | –
35 | Oc1ccc(-c2nccs2)cc1 | inactive | –
36 | O=C(O)c1ccc(-c2nnc(-c3ccccc3)o2)cc1 | inactive | –
37 | Cn1cc(C(CO)Cc2ccccc2)c2ccccc21 (stereo unspecified) | inactive | –
38 | CCCNC(=O)C1CC(=O)N(c2ccc(OCC)cc2)C1 (stereo unspecified) | inactive | –
39 | COC(=O)CN1C(C)=Nc2ccc(Br)cc2C1c1ccccc1 (stereo unspecified) | inactive | –
40 | Nc1ccc(OC(=O)Nc2ccc(O)cc2)cc1 | inactive | –
41 | Cc1nn(CCOc2ccccc2)c(=O)n1-c1ccc(Cl)cc1 | inactive | –
42 | Oc1ccc(CCc2ccccn2)cc1 | – | AC50: > 39 µM (inactive)
43 | Cc1cc2c(cc1S(=O)(=O)N(C)c1ccccc1)NC(=O)CO2 | inactive | –
44 | CC(C)=CCOc1c2occc2cc2ccc(=O)oc12 | inactive | –
45 | COc1ccc(CNCCc2ccc3c(c2)OCO3)cc1Br | inactive | –
46 | Cc1ccc(S(=O)(=O)N2CC(CBr)=CCC2c2ccccc2)cc1 (stereo unspecified) | – | AC50: > 39 µM (inactive)

Row | Structure (SMILES) | activity change, negative = inhibition (at 19.5 µM (top of the series)) | also measured
47 | Cn1c(=O)[nH]c(=O)c2c1[nH]c(=S)n2Cc1ccccc1 | inactive | –
48 | COc1cccc(C(CNc2ccc(S(=O)(=O)N3CCN(C)CC3)cc2[N+](=O)[O-])N(C)C)c1 (stereo unspecified) | inactive | –
49 | CCCS(=O)(=O)NC(=O)C1(C)CCN(C(=O)c2ccco2)C1 (stereo unspecified) | inactive | –
50 | O=C(CCn1cnc2ccccc21)N/N=C/c1ccc(O)cc1 | inactive | –
51 | CN1C(=O)c2cc(NC(=O)c3cccc(F)c3)ccc2OC[C@@H]2O[C@@H](CC(=O)NCC3CCCCC3)CC[C@@H]21 | inactive | –
52 | CCCNC(=O)Nc1ccc2c(c1)C(=O)N(C)[C@H]1CC[C@H](CC(=O)NC3CCC3)O[C@@H]1CO2 | inactive | –
53 | O=C(Nc1nnc(-c2ccco2)o1)C1CC1 | inactive | –
54 | CCSc1nnc(NC(=O)C2CC2c2ccccc2)s1 (stereo unspecified) | inactive | –
55 | COc1ccc(CNC(=O)Cc2cn(C)c3ccccc23)c(OC)c1 | inactive | –
56 | O=C(Nc1ccccc1F)N1C[C@@H]2N[C@H](C1)C2c1ccc(-c2cccc(F)c2)cc1 (stereo partly specified) | inactive | –
57 | CC(Sc1nccn1C)C(=O)c1c(N)n(C)c(=O)n(C)c1=O (stereo unspecified) | inactive | –
58 | O=C(Nc1ccc(O)cc1)c1ccc2c(c1)C(=O)N(Cc1ccco1)C2=O | inactive | –
59 | N#CCCN(C(=O)COC(=O)c1cc(=O)c2ccccc2o1)c1ccccc1 | inactive | –
60 | COC(=O)C1=C[C@@H](C(=O)OC)[C@@H]2C3=C(C(=O)[C@]2(C)NC(=O)c2ccccc2)[C@H](C)n2c(=O)n(C)c(=O)n2[C@@H]3C1 | inactive | –
61 | NNC(=O)CNC(=O)Nc1n[nH]c(=S)s1 | inactive | –
62 | CCC(=O)Nc1ccc2c(c1)OC[C@H](C)N(C(=O)NC(C)C)C[C@@H](C)[C@@H](OC)CN(C)C2=O | inactive | –
63 | Cc1ccc(N/N=C/c2c(O)n(-c3ccccc3)c(=O)[nH]c2=O)cc1 | – | AC50: 8.13 µM
64 | COc1ccc(/C=C\c2onc(C)c2S(=O)(=O)N2CCC(C(=O)NCc3ccco3)CC2)cc1 | inactive | –
65 | CC(=O)c1ccc(Nc2ccc(-c3ccccc3F)nn2)cc1 | inactive | –
66 | O=C(N/N=C/c1ccccn1)c1ccc([N+](=O)[O-])cc1Cl | inactive | –
67 | C/C(=N\NC(=O)CSc1nc2ccccc2c(=O)n1-c1ccccc1C)c1cccs1 | inactive | –
68 | CCOc1ccc2ccccc2c1/C=N/NC(=O)c1ccncc1 | inactive | –
69 | O=C(Nc1ccc(O)cc1)/C(=C\c1cccs1)NC(=O)c1ccccc1 | inactive | –

Row | Structure (SMILES) | activity change, negative = inhibition (at 19.5 µM (top of the series)) | also measured
70 | O=C(OCC(=O)N1CCCCC1)c1ccccc1SCC(=O)N1CCCCC1 | inactive | –
71 | O=C(Nc1ccncc1)c1ccc(-c2ccccc2)cc1 | inactive | –
72 | CCCc1cc(-c2n[nH]c(C(=O)OCC)c2-c2cscn2)c(O)cc1O | inactive | –
73 | O=C(NCc1cc(C(F)(F)F)cc(C(F)(F)F)c1)C1CC(c2c(Cl)cccc2Cl)=NO1 (stereo unspecified) | inactive | –
74 | COc1ccc(/C=C/c2onc(C)c2S(=O)(=O)N2CCC(C(=O)N3CCCCCC3)CC2)cc1 | inactive | –
75 | CC1CCCN(C(=S)Nc2ccc(F)cc2)C1 (stereo unspecified) | inactive | –
76 | O=C(COC(=O)c1ccc(F)cc1F)c1ccc[nH]1 | inactive | –
77 | C[C@H](NC(=O)c1cc2c(cn1)[nH]c1ccccc12)C(=O)O | inactive | –
78 | O=C(CCC(=O)N1CCSc2ccccc21)Nc1cccc(F)c1 | inactive | –
79 | CCCCNC(=O)C1CCN(S(=O)(=O)c2c(C)noc2/C=C\c2ccc(OC)cc2)CC1 | inactive | –
80 | CC(=O)Nc1cc(-c2ccc(F)cc2)[nH]n1 | inactive | –
81 | Cc1ccc(S(=O)(=O)N2CCC(C(=O)OCC(=O)NCCc3ccccc3)CC2)cc1C | inactive | –
82 | Cc1cnc(C(=O)OCC(=O)Nc2ccc(OCc3ccccc3)cc2)cn1 | inactive | –
83 | CCOC(=O)N1CCN(C(=S)NC(=O)c2ccc(F)c(F)c2)CC1 | inactive | –
84 | COc1ccc(CCNC(=O)CCCn2nc(C)n3ccnc3c2=O)cc1OC | inactive | –
85 | S=c1nc(-c2ccc(Cl)cc2)[nH][nH]1 | inactive | –
86 | CC(=O)Nc1ccc(NC(=O)Cc2ccc(S(=O)(=O)N3CCCCC3)cc2)cc1 | inactive | –
87 | Cc1ccc(C(=O)OCC(=O)c2cc(C)n(CC3CCCO3)c2C)cc1 (stereo unspecified) | inactive | –
88 | Cc1csc(N=Nc2ccc(N(C)C)cc2)[n+]1[O-] | inactive | –
89 | Oc1ccc(/C=N/Nc2nc(N3CCCC3)nc(N3CCCC3)n2)cc1O | inactive | –
90 | CCCNC(=O)N1CC[C@@H]2[C@H]1c1cc(-c3ccccc3)ccc1N(C)[C@H]2CO | inactive | –
91 | CCNC(=O)C[C@H]1CC[C@@H]2[C@H](COc3ccc(NC(=O)c4ccc5c(c4)OCO5)cc3C(=O)N2C)O1 | – | AC50: > 42 µM (inactive)
